Assay results taken from ChEMBL document CHEMBL1201862, “PubChem BioAssay data set” (2004).
Calls of active or inactive are those of the source.

Tests used:
[1] = inhibitors of HIV Env-driven cell fusion, dose response, cherry-pick (AID 652057); assay type: functional, cell-based
[2] = inhibitors of clade B AD8 Env fusion, dose response, cell-based, cherry-pick (AID 652062); assay type: functional;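 also: luciferase signal from cell-cell fusion driven by HIV-1 clade B AD8 Env; potency is for inhibitors of fusion seen as a drop in luminescence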
Paired box protein Pax-8 = Paired box protein Pax-8 (Homo sapiens, UniProt Q06710); experiment: inhibitors of PAX8-driven TPO luciferase reporter, dose response, RMG-I cells, cherry-pick (AID 687027); assay type: functional, cell-based;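 also: luciferase reporter driven by Pax8 target thyroperoxidase promoter measured by SteadyGlo luminescence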
Sequence of Paired box protein Pax-8 (Q06710 whole entry): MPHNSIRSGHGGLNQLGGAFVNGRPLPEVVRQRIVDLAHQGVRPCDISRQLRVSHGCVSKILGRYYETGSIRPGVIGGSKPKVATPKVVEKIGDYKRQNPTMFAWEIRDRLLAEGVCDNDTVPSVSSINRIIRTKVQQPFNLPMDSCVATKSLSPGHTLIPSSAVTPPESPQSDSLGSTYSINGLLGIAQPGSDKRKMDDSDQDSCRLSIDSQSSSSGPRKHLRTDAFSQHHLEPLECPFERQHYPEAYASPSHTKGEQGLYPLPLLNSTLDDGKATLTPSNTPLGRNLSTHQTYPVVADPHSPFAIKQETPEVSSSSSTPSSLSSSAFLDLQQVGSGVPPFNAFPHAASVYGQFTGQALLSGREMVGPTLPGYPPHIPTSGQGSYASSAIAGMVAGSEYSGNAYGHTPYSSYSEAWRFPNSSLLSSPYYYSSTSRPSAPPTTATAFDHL

[3] = cytotoxicity in OVCAR8 ovarian cancer cells, dose response, PAX8 project, cell-based, plate reader, dry powder samples (AID 743197); assay type: functional; details: OVCAR-8
[4] = molecular target: T1, Short transient receptor potential channel 4 (Mus musculus, UniProt Q9QUQ5); experiment: mouse TRPC4 channel inhibitors, dose response, cell-based, HEK293 TRPC4/mu-opioid, Fluo-4 calcium (AID 434942); assay type: functional;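 also: potency of inhibitors blocking the TRPC4 calcium response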
T1 sequence (Q9QUQ5 whole entry): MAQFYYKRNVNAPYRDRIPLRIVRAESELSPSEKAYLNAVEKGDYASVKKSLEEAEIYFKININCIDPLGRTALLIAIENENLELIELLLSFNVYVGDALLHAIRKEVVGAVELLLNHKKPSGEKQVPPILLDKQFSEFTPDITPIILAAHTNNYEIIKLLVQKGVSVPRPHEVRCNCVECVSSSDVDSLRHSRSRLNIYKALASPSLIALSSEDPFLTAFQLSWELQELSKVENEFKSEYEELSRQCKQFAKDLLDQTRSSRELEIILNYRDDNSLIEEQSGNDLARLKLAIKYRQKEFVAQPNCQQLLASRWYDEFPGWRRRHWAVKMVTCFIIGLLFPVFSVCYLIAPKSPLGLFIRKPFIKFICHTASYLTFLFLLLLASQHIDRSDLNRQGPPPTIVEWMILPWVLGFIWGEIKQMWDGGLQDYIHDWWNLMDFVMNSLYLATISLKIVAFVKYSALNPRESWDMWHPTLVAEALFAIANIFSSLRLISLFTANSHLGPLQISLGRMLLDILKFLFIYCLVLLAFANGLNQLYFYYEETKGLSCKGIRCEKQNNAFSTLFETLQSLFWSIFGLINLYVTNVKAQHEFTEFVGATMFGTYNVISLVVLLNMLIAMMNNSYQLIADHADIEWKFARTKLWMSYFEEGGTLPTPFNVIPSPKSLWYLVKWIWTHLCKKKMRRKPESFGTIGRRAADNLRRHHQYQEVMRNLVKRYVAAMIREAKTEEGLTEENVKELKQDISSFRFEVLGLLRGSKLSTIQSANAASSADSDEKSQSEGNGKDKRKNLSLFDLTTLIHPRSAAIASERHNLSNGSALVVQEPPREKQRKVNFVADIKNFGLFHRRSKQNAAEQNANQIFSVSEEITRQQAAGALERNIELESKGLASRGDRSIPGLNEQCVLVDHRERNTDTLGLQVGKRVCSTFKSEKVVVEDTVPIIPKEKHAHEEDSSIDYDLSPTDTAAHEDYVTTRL

BJ [5] = experiment: cytotoxicity toward BJ-TERT-LT-ST fibroblasts, dose response, cell-based, RAS-independent, luminescence (AID 1935); assay type: functional; details: Homo sapiens;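 also: BJ fibroblasts immortalized with TERT plus LT and ST oncogenes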
[6] = cytotoxicity toward DRD oncogenic fibroblasts, dose response, cell-based, non-viral oncogenic, luminescence (AID 1934); assay type: functional; details: Homo sapiens
[7] = molecular target: T2, Replicative DNA helicase DnaB (Mycobacterium tuberculosis, UniProt P9WMR3); experiment: DnaB intein splicing inhibitors, dose response, biochemical, cell-free fluorescence (AID 449749); assay type: functional
T2 sequence (P9WMR3 whole entry): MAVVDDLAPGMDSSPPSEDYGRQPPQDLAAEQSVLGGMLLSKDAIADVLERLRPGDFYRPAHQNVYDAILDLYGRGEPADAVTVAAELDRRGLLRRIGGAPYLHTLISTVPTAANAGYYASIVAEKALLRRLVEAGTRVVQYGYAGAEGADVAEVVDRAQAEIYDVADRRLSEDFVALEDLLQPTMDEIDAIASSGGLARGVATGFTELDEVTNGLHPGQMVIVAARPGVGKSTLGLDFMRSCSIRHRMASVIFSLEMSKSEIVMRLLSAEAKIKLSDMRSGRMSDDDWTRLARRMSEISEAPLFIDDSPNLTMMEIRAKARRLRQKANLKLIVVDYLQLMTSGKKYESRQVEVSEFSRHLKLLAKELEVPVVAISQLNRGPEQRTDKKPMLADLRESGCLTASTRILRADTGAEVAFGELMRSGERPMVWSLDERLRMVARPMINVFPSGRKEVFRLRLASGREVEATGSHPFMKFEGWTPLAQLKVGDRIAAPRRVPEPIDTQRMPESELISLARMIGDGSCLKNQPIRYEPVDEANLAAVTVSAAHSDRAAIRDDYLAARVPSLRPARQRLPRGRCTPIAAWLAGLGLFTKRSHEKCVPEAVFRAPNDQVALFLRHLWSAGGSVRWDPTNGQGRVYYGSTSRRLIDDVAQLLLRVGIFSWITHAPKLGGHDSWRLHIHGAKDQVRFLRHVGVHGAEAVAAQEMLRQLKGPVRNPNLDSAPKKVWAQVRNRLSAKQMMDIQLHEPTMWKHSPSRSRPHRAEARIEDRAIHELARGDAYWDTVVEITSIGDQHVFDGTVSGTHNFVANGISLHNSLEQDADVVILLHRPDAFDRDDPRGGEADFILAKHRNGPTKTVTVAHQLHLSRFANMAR

Protein RecA = molecular target: T3, Protein RecA (Mycobacterium tuberculosis, UniProt P9WHJ3); experiment: Fluorescence Cell-Free Homogeneous Dose Retest to Identify Inhibitors of RecA-Intein Splicing Activity. [Related pubchem assays (depositor defined):AID2097, AID2223, AID489010, AID492950]; assay type: functional
T3 sequence (P9WHJ3 whole entry): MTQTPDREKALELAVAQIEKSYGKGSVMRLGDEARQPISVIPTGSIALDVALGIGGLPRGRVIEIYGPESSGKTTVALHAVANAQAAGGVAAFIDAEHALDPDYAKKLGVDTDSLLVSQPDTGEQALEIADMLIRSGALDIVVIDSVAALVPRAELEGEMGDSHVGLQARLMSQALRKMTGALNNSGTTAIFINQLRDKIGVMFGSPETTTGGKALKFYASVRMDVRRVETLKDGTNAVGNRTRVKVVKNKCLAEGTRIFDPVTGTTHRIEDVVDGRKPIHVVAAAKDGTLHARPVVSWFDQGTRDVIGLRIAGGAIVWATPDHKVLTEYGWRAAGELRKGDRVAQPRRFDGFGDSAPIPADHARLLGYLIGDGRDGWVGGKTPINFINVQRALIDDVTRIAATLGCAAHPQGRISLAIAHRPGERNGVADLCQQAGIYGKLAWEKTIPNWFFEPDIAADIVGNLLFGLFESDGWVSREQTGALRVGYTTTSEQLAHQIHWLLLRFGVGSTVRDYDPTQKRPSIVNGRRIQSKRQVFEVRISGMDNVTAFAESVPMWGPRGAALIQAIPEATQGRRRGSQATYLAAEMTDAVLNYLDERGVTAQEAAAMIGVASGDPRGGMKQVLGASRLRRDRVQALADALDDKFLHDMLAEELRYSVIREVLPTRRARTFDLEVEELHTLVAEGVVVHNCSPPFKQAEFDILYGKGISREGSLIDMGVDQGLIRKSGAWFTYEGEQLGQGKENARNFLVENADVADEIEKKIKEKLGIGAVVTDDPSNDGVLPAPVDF

BJ [8] = experiment: cells; assay type: functional, cell-based; details: Homo sapiens
BJ [9] = experiment: cytotoxicity toward BJ-TERT fibroblasts, dose response, cell-based, RAS-independent, luminescence (AID 1933); assay type: functional; details: Homo sapiens
[10] = NIH:OVCAR-3 ovarian cancer cell cytotoxicity, dose response, PAX8 inhibitor project, plate reader, dry powder samples (AID 743044); assay type: functional, cell-based
Genome polyprotein = Genome polyprotein (dengue virus type 2, UniProt P29990); experiment: Dengue-2 NS5 methyltransferase inhibitors, primary screen, biochemical, confirmation dose response (AID 588689); assay type: functional
Sequence of Genome polyprotein (P29990 2492-3391 limits assumed): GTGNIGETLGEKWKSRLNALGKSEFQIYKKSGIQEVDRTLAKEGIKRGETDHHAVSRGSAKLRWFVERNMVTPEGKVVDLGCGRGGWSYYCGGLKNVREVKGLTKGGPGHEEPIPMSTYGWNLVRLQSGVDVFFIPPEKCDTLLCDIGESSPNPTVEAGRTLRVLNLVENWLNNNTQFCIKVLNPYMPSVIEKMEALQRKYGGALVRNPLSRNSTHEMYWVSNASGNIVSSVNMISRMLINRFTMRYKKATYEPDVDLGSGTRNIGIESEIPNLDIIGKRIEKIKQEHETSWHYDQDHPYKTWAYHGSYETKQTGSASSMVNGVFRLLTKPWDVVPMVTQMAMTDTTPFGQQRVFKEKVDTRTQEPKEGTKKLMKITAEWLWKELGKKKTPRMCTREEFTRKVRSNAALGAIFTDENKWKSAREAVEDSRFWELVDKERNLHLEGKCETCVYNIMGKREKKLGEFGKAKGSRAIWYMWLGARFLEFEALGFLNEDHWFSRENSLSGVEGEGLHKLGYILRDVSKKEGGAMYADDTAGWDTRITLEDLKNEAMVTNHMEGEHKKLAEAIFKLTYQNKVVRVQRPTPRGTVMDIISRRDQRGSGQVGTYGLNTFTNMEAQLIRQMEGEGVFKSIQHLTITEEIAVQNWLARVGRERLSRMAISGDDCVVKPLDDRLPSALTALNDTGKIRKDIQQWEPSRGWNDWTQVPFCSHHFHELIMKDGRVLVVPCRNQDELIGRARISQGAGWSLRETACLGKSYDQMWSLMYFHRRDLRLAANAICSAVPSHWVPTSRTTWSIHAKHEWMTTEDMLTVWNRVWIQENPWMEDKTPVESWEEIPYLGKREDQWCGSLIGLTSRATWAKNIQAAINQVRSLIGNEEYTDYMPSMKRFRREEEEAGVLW

[11] = Luminescence Cell-Based Dose Retest to Confirm Inhibitors of Cancer Stem Cells. [Related pubchem assays (depositor defined):AID2717, AID2721]; assay type: functional; details: Homo sapiens
[12] = molecular target: T4, Heat shock factor protein 1 (Mus musculus, UniProt P38532); experiment: HSF1 potentiators in luciferase reporter cells, confirmation, cell-based, NIH3T3, luminescence, dose retest (AID 435004); assay type: functional;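 also: stress induced by proteasome inhibitor MG132 added 30 min after compound; luciferase reporter driven by HSF1 response element in NIH3T3 cells; actives raise luminescence as potentiators of the MG132 stress response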
T4 sequence (P38532 whole entry): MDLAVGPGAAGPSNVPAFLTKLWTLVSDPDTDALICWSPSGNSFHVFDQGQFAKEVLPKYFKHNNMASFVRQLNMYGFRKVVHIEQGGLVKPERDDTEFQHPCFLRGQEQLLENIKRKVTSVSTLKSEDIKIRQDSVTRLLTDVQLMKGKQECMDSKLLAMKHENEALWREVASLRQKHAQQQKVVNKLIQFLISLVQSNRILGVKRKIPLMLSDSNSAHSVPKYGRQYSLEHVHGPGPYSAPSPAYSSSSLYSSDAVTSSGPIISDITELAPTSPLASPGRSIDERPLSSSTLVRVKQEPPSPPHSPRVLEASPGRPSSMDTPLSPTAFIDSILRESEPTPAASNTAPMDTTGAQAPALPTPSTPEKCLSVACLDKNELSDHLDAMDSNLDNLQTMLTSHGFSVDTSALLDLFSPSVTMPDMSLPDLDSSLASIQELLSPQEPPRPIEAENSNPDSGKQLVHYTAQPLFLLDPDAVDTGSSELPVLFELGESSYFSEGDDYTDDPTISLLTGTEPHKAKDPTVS

[13] = molecular target: T5, Rac GTPase-activating protein 1 (Homo sapiens, UniProt Q9H0H5); experiment: MgcRacGAP GTPase-activating activity inhibitors, confirmation, biochemical, ADP Hunter fluorescence, primary and confirmatory (AID 624330); assay type: functional
T5 sequence (Q9H0H5 whole entry): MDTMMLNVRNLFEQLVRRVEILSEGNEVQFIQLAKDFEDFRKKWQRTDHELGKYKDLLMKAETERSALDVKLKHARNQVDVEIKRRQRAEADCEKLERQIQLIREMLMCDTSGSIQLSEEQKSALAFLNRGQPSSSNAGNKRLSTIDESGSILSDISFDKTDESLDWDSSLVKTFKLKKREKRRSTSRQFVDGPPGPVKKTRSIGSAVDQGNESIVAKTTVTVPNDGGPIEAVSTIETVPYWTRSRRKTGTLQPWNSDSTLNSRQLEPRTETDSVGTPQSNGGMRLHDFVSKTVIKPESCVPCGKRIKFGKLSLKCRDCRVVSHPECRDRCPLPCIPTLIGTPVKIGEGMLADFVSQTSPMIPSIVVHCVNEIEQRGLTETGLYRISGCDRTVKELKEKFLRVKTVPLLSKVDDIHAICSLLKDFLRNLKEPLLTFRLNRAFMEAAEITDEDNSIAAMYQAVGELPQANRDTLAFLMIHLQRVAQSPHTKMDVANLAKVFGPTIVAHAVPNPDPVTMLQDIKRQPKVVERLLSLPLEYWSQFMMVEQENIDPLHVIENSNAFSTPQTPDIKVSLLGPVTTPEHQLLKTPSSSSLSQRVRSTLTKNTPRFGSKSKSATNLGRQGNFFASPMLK

[14] = molecular target: T6, DNA repair protein RAD52 homolog (Homo sapiens, UniProt P43351); assay type: functional, biochemical
T6 sequence (P43351 whole entry): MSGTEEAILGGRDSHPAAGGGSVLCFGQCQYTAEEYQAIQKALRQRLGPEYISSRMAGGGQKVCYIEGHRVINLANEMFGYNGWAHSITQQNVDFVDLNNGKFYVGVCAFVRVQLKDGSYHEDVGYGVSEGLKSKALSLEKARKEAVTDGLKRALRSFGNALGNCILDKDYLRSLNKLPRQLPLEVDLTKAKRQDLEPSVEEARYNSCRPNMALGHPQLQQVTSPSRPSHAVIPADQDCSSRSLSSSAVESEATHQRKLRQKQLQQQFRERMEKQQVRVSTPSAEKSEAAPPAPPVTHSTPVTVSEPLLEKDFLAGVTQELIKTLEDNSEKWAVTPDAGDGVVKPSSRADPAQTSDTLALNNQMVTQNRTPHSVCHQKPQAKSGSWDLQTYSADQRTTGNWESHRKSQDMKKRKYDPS

CC(C)CC#Cc1ccc2c(c1)O[C@@H](CN(C)S(=O)(=O)c1ccc(F)cc1)[C@H](C)CN([C@@H](C)CO)S2(=O)=O
AC50 [1]: 30.8 µM (active) | AC50 [2]: 44.9 µM (active) | AC50 (Paired box protein Pax-8): 9.45 µM (active) | AC50 [3]: 61 µM (active)

CCC(O)C1CCN(Cc2cn(-c3ccc(OC)cc3)nc2-c2cccc(F)c2)CC1 (stereo not given)
EC50 [4]: 10.6 µM (active)

O=C(NC1CCCC1)C(c1ccc(Cl)cc1)N(Cc1ccc(F)cc1)C(=O)CCl (stereo not given)
EC50 (BJ [5]): > 150 µM (inconclusive) | EC50 [6]: 10.5 µM (inconclusive) | AC50 [7]: 1.16 µM (active) | EC50 (Protein RecA): 1.07 µM (active) | EC50 (BJ [8]): 16.4 µM (active) | EC50 (BJ [9]): 7.08 µM (inconclusive)

Cc1ccc(OC(=O)N(C)C[C@@H]2OCc3ccccc3-c3c(n(C)c4ccccc34)C(=O)N([C@@H](C)CO)C[C@H]2C)cc1
AC50 [10]: 39.9 µM (active) | AC50 (Paired box protein Pax-8): 4.78 µM (active) | AC50 [3]: > 70 µM (inactive)

CCCn1nc([N+](=O)[O-])c(C(C#N)c2nc3ccccc3o2)c(Cl)c1=O (stereo not given)
IC50 (Genome polyprotein): 34.7 µM (active) | AC50 [11]: 4.55 µM (active) | EC50 [4]: 6.68 µM (active) | EC50 [12]: > 260 µM (inactive)

CC[N+](CC)(CC)CCCCOc1ccc2c(c1)C(=O)c1cc(OCCCC[N+](CC)(CC)CC)ccc1-2
IC50 [13]: 221 µM (active) | AC50 [14]: 0.506 µM (active)

O=C(NCCN1CCOCC1)c1ccc2c(c1)N(Cc1ccc(F)cc1)C(=O)CS2
EC50 [4]: 4.73 µM (active)

Cc1ccc(C)c2nc3sc(C(=O)O)cc3cc12
EC50 [4]: 5.31 µM (active)

CCn1cc(CN2CCCC(CO)(Cc3cccc(Cl)c3)C2)cn1 (stereo not given)
EC50 [4]: 5.96 µM (active)

Cc1ccc(C(=O)NC(=S)Nc2c(C)ccc3nsnc23)cc1
EC50 [4]: 5.96 µM (active)

Brc1ccc(CN2C3=NCCCN3c3ccccc32)cc1
EC50 [4]: 0.531 µM (active)
